According to publication PMC5584254, “Identification of novel small molecule Beclin 1 mimetics activating autophagy” (Oncotarget, 2017):
Read-outs that look alike come from different tables or passages of the source.

Assays:
Bcl-xL-Beclin 1 complex [1] = molecular target: T1, Bcl-xL-Beclin 1 complex (Homo sapiens, UniProt Q07817); assay: Concentration response FP reconfirmation of HTS hits; type: binding; conditions: for inhibition at 5 µM: read-out: Dose-response (% Inhibition) 5 μM; for inhibition at 10 µM: read-out: Dose-response (% Inhibition) 10 μM; for inhibition at 20 µM: read-out: Dose-response (% Inhibition) 20 μM; for inhibition at 40 µM: read-out: Dose-response (% Inhibition) 40 μM; for inhibition at 80 µM: read-out: Dose-response (% Inhibition) 80 μM; for inhibition at 160 µM: read-out: Dose-response (% Inhibition) 160 μM
T1 construct: made in house
T1 sequence (Q07817 whole entry, one chain of several): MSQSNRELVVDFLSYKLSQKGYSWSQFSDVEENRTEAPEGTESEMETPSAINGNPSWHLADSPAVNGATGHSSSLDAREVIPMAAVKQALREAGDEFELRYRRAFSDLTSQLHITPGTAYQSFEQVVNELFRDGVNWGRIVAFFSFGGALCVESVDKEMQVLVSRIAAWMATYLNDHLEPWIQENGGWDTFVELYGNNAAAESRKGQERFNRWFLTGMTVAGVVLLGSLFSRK
Method: (§1) Then the plates were read by Envision (Perkin Elmer, Waltham, MA). […] The hits were selected from library stocks and reconfirmed in a concentration response FP assay (6 doses ranging from 5 μM to 160 μM or 8 doses ranging from 0.5 μM to 60 μM).

Bcl-xL-Beclin 1 complex [2] = molecular target: T1, Bcl-xL-Beclin 1 complex; assay: FP-based high-throughput screening, primary screen; type: binding; conditions: first screen; 40 μM compound, 2.5 μM Bcl-xL, 400 nM 20-mer
Excerpt: Next, we optimized the FP competitive binding assay in a 384-well microplate format and carried out a small-scale HTS using a small library, which contains 6580 compounds from Prestwick, Microsource and our in-house CMLD library. Then, the FP assay was optimized and applied in screening the larger Chembridge library consisting of 43736 compounds. HTS cascades are shown in Supplementary Figure 1A–1B. […] All chemical structures can be found on the PubChem website (http://pubchem.ncbi.nlm.nih.gov/).
as §1

## O=C(O)c1cc(O)c2c(c1)[C@@H]([C@H]1c3cc(C(=O)O)cc(O)c3C(=O)c3c(O[C@@H]4O[C@H](CO)[C@@H](O)[C@H](O)[C@H]4O)cccc31)c1cccc(O[C@@H]3O[C@H](CO)[C@@H](O)[C@H](O)[C@H]3O)c1C2=O [Compound A35, SENNOSIDE B]
Bcl-xL-Beclin 1 complex [1]; 5 μM, hits of first screen
  inhibition at 5 µM: 2.7%
Bcl-xL-Beclin 1 complex [1]; 10 μM, hits of first screen
  inhibition at 10 µM: 4.1%
Bcl-xL-Beclin 1 complex [1]; 20 μM, hits of first screen
  inhibition at 20 µM: 5.8%
Bcl-xL-Beclin 1 complex [1]; 40 μM, hits of first screen
  inhibition at 40 µM: 13.6%
Bcl-xL-Beclin 1 complex [1]; 80 μM, hits of first screen
  inhibition at 80 µM: 21.1%
Bcl-xL-Beclin 1 complex [1]; 160 μM, hits of first screen
  inhibition at 160 µM: 19.9%
Bcl-xL-Beclin 1 complex [2]
  Primary Screen mP: 120.4 mP
  inhibition at 40 µM: 14.3%

## COc1cccc2c1C(=O)c1c(O)c3c(c(O)c1C2=O)C[C@@](O)(C(C)=O)C[C@@H]3O[C@H]1C[C@H](N)[C@H](O)[C@H](C)O1 [Compound A36, DAUNORUBICIN]
Bcl-xL-Beclin 1 complex [1]
  inhibition at 5 µM: 22.8%
  inhibition at 10 µM: 33.4%
  inhibition at 20 µM: 41%
  inhibition at 40 µM: 44.4%
  inhibition at 80 µM: 51.9%
  inhibition at 160 µM: 56%
Bcl-xL-Beclin 1 complex [2]
  Primary Screen mP: 75.5 mP
  inhibition at 40 µM: 45.8%

## COC(=O)CC[C@@H](C)[C@H]1CC[C@H]2[C@@H]3[C@H](O)C[C@@H]4C[C@H](O)CC[C@]4(C)[C@H]3C[C@H](O)[C@]12C [Compound A09, CHOLIC ACID, METHYL ESTER]
Bcl-xL-Beclin 1 complex [1]; 5 μM, hits of first screen
  inhibition at 5 µM: 1.6%
Bcl-xL-Beclin 1 complex [1]; 10 μM, hits of first screen
  inhibition at 10 µM: 1.5%
Bcl-xL-Beclin 1 complex [1]; 20 μM, hits of first screen
  inhibition at 20 µM: 1.7%
Bcl-xL-Beclin 1 complex [1]; 40 μM, hits of first screen
  inhibition at 40 µM: 4.2%
Bcl-xL-Beclin 1 complex [1]; 80 μM, hits of first screen
  inhibition at 80 µM: 9.3%
Bcl-xL-Beclin 1 complex [1]; 160 μM, hits of first screen
  inhibition at 160 µM: 13.2%
Bcl-xL-Beclin 1 complex [2]
  Primary Screen mP: 127.0 mP
  inhibition at 40 µM: 9.59%

## CC[N+](C)(CC)CCC[n+]1c(-c2ccccc2)c2cc(N)ccc2c2ccc(N)cc21.[I-].[I-] [Compound A40, PROPIDIUM IODIDE]
Bcl-xL-Beclin 1 complex [1]; 5 μM, hits of first screen
  Dose-response (% Inhibition) 5 μM: 0.5%
Bcl-xL-Beclin 1 complex [1]; 10 μM, hits of first screen
  Dose-response (% Inhibition) 10 μM: -0.2%
Bcl-xL-Beclin 1 complex [1]; 20 μM, hits of first screen
  Dose-response (% Inhibition) 20 μM: 1.2%
Bcl-xL-Beclin 1 complex [1]; 40 μM, hits of first screen
  Dose-response (% Inhibition) 40 μM: 4.4%
Bcl-xL-Beclin 1 complex [1]; 80 μM, hits of first screen
  Dose-response (% Inhibition) 80 μM: 12.1%
Bcl-xL-Beclin 1 complex [1]; 160 μM, hits of first screen
  Dose-response (% Inhibition) 160 μM: 18.3%
Bcl-xL-Beclin 1 complex [2]
  Primary Screen % Inhibition: 7.08%
  Primary Screen mP: 123.6 mP

## CCCCCc1c2c(cc(O)c1C(=O)O)OC(=O)c1c(cc(OC)cc1C(=O)CCCC)O2 [Compound A04, LOBARIC ACID]
Bcl-xL-Beclin 1 complex [1]; 5 μM, hits of first screen
  inhibition at 5 µM: 1.4%
Bcl-xL-Beclin 1 complex [1]; 10 μM, hits of first screen
  inhibition at 10 µM: 2.3%
Bcl-xL-Beclin 1 complex [1]; 20 μM, hits of first screen
  inhibition at 20 µM: 2%
Bcl-xL-Beclin 1 complex [1]; 40 μM, hits of first screen
  inhibition at 40 µM: 3.2%
Bcl-xL-Beclin 1 complex [1]; 80 μM, hits of first screen
  inhibition at 80 µM: 10.2%
Bcl-xL-Beclin 1 complex [1]; 160 μM, hits of first screen
  inhibition at 160 µM: 13.7%
Bcl-xL-Beclin 1 complex [2]
  Primary Screen mP: 129.2 mP
  inhibition at 40 µM: 7.13%

## CC[n+]1c(-c2ccccc2)c2cc(N)ccc2c2ccc(N)cc21 [Compound A12, HOMIDIUM BROMIDE]
Bcl-xL-Beclin 1 complex [1]
  inhibition at 5 µM: 3.5%
  inhibition at 10 µM: 5.5%
  inhibition at 20 µM: 7.2%
  inhibition at 40 µM: 12%
  inhibition at 80 µM: 26.1%
  inhibition at 160 µM: 39.2%
Bcl-xL-Beclin 1 complex [2]
  Primary Screen mP: 113.8 mP
  inhibition at 40 µM: 15.3%

## O=C(Nc1ccccc1)c1ccccc1O [Compound A39, SALICYLANILIDE]
Bcl-xL-Beclin 1 complex [1]
  inhibition at 5 µM: 103%
  inhibition at 10 µM: 103%
  inhibition at 20 µM: 103%
  inhibition at 40 µM: 99.7%
  inhibition at 80 µM: 102%
  inhibition at 160 µM: 103%
Bcl-xL-Beclin 1 complex [2]
  Primary Screen mP: -3.2 mP
  inhibition at 40 µM: 102%

## Cc1cc2c(C(C)C)c(O)c(O)c(C=O)c2c(O)c1-c1c(C)cc2c(C(C)C)c(O)c(O)c(C=O)c2c1O [Compound A38, GOSSYPOL]
Bcl-xL-Beclin 1 complex [1]
  inhibition at 5 µM: 2.7%
  inhibition at 10 µM: 4.8%
  inhibition at 20 µM: 5.4%
  inhibition at 40 µM: 8.4%
  inhibition at 80 µM: 14.7%
  inhibition at 160 µM: 18.3%
Bcl-xL-Beclin 1 complex [2]
  Primary Screen mP: 125.4 mP
  inhibition at 40 µM: 10.8%

## Cc1cc2nc3c(=O)[nH]c(=O)nc-3n(C[C@H](O)[C@H](O)[C@H](O)CO)c2cc1C [Compound A31, RIBOFLAVIN]
Bcl-xL-Beclin 1 complex [1]; 5 μM, hits of first screen
  inhibition at 5 µM: 67.6%
Bcl-xL-Beclin 1 complex [1]; 10 μM, hits of first screen
  inhibition at 10 µM: 77.7%
Bcl-xL-Beclin 1 complex [1]; 20 μM, hits of first screen
  inhibition at 20 µM: 103%
Bcl-xL-Beclin 1 complex [1]; 40 μM, hits of first screen
  inhibition at 40 µM: 99.7%
Bcl-xL-Beclin 1 complex [1]; 80 μM, hits of first screen
  inhibition at 80 µM: 102%
Bcl-xL-Beclin 1 complex [1]; 160 μM, hits of first screen
  inhibition at 160 µM: 103%
Bcl-xL-Beclin 1 complex [2]
  Primary Screen mP: -3.2 mP
  inhibition at 40 µM: 102%
